The values below come from ChEMBL document CHEMBL1136792, “Synthesis of chiral 1-[omega-(4-chlorophenoxy)alkyl]-4-methylpiperidines and their biological evaluation at sigma1, sigma2, and sterol delta8-delta7 isomerase sites” (J Med Chem, 2003).

The term Ki denotes the dissociation constant of the complex between target and ligand, obtained from inhibition or displacement. A lower Ki goes with tighter binding.

For test [1], the target named is T1, 3-beta-hydroxysteroid-Delta(8),Delta(7)-isomerase (Cavia porcellus, UniProt Q60490).
T1 sequence (Q60490 whole entry): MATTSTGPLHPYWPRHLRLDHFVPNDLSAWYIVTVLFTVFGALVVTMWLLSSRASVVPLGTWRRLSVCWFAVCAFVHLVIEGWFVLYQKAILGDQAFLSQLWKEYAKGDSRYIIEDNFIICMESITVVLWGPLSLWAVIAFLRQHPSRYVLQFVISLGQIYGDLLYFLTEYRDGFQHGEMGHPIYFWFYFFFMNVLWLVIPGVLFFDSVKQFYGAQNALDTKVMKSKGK
Description: Inhibition of [3H]-emopamil binding to Sterol delta 8-delta 7 isomerase in guinea pig liver membrane. Format: cell membranes.

The target of a further test is Sigma 2 receptor. As to the kind of experiment: Inhibition of [3H]DTG binding to Sigma receptor type 2 in rat liver membrane. Type of test: cell membranes.
For another test, the species on record is Cavia porcellus. Description: Relative affinity for sterol delta-(8)-delta-(7) isomerase over sigma-1 receptor.
Test [2] concerns the target Sigma non-opioid intracellular receptor 1 (Homo sapiens) (UniProt Q99720). Description: Relative affinity for sigma-2 over sigma-1 receptors.

Sequence of Sigma non-opioid intracellular receptor 1 (Homo sapiens) (Q99720 whole entry): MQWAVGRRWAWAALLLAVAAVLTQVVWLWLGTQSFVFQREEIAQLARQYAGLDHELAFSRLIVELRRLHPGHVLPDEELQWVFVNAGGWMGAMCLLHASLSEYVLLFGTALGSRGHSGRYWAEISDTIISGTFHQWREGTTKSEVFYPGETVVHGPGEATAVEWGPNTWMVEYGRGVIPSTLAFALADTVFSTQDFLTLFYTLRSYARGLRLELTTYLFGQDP

Consider `CC1CCN([C@@H](C)CCOc2ccc(Cl)cc2)CC1`, for which the Ki amounted to 0.037 µM in test [1] and 0.0316 µM on Sigma 2 receptor.
`CC1CCN(C[C@H](C)COc2ccc(Cl)cc2)CC1`: the Ratio in the test filed under Cavia porcellus is 13; in test [2] it was 37. For the same compound, the Ki in test [1] was 0.0145 µM; on Sigma 2 receptor, 0.0408 µM.
Take `CC1CCN(CC[C@@H](C)Oc2ccc(Cl)cc2)CC1`: the Ki amounted to 0.0301 µM in test [1] and 0.0139 µM on Sigma 2 receptor.
Regarding `CC1CCN([C@H](C)COc2ccc(Cl)cc2)CC1`, the Ratio in the test listed under Cavia porcellus was found to be 23; in test [2], 44. Also, the inhibitory constant (Ki) stood at 0.0275 µM in test [1] and 0.0523 µM on Sigma 2 receptor.
The compound `CC(C(O)c1ccc(O)cc1)N1CCC(Cc2ccccc2)CC1` (racemic) [IFENPRODIL] displayed an inhibition constant (Ki) in test [1] of 0.00271 µM.
For `CC1CCN(C[C@@H](C)Oc2ccc(Cl)cc2)CC1`, the values for the Ki (in test [1]; at Sigma 2 receptor) were 0.00338 µM and 0.318 µM, respectively.
Consider `CC1CCN(C[C@H](C)Oc2ccc(Cl)cc2)CC1`, for which the Ki in test [1] came out at 0.0351 µM; at Sigma 2 receptor it was 0.332 µM.
With `C(/C=C/c1ccc2c(c1)OCO2)=C\CN1CCCCC1`, affinity on Sigma 2 receptor was put at a Ki of 0.554 µM.
Consider `CC1CCN(CCOc2ccc(Cl)cc2)CC1`, for which the Ki in test [1] was determined as 0.0037 µM; on Sigma 2 receptor, 0.239 µM.
As for `CC1CCN(C[C@@H](C)COc2ccc(Cl)cc2)CC1`, the Ratio in the test filed under Cavia porcellus is 11; in test [2] it was 36. The Ki came out at 0.0187 µM in test [1] and 0.062 µM at Sigma 2 receptor.
Regarding `CC1CCN([C@@H](C)COc2ccc(Cl)cc2)CC1`, the Ratio in the test filed under Cavia porcellus came out at 11; in test [2], 547. The inhibition constant (Ki) came out at 0.00373 µM in test [1] and 0.186 µM on Sigma 2 receptor.
`CC1CCN(CC[C@H](C)Oc2ccc(Cl)cc2)CC1`: the Ki in test [1] is 0.012 µM; at Sigma 2 receptor, 0.0659 µM.
Taken in the same sequence, the figures for `CC1CCN([C@H](C)CCOc2ccc(Cl)cc2)CC1` were 0.00779 µM and 0.0151 µM.
For `CC1CCN(CCCOc2ccc(Cl)cc2)CC1` the same measures were 0.00965 µM and 0.0386 µM.
